Data published in PMC8617031, “Development of a BCL-xL and BCL-2 dual degrader with improved anti-leukemic activity,” (Nature Communications, 2021).
Where “and” joins values, the source holds several entries; their conditions need not be identical. Equal entries are not always repeated.

What was measured:
[1] = test system: BCL-xL/PROTAC/VCB ternary complex (HiBit-BCL-xL, HaloTag-VHL); experiment: NanoBRET intracellular ternary complex formation in 293T cells, BCL-xL; type: cell-based, human; settings: for NanoBRET ratio (610/450 x1000, background-subtracted), Bcl-xl, Ave / NanoBRET signal (610/450 ratio, background-subtracted), Ave, Bcl-xl: Ave of Read1 and Read2; for NanoBRET ratio (610/450 x1000, background-subtracted), Bcl-xl, Ave / NanoBRET ratio (610/450 x1000, background-subtracted), Bcl-xl, Read1 / NanoBRET ratio (610/450 x1000, background-subtracted), Bcl-xl, Read2: 293T cells, triplicate wells; for NanoBRET signal (610/450 ratio, background-subtracted), Ave, Bcl-xl: per replicate well; for NanoBRET signal (610/450 ratio, background-subtracted), Read1, Bcl-xl / NanoBRET signal (610/450 ratio, background-subtracted), Read2, Bcl-xl: individual replicate wells
Excerpt: (§1) Plasmids HaloTag-VHL (Cat. No. CS1679C155) and CMV HiBit (Cat. No. CS1956B03) were purchased from Promega. HiBit-BCL-xL and HiBit-BCL-2 were constructed previously. The two mutants (HiBit-BCL-xL-K157-only and HiBit-BCL-xL-K-ko) were constructed through Gibson assembly method. The primer pair (5′-[…]-3′ and 5′-[…]c[…]-3′) and the template Flag-BCL-xL-K157-only or Flag-BCL-xL-K-ko (pDL2129)[2] were used to clone the BCL-xL-K157-only-containing and BCL-xL-K-ko-containing fragments, respectively. The primer pair (5′-[…]g[…]-3′ and 5′-[…]-3′) and pBit3.1-N (Cat. No. N2361, Promega) were used to clone the vector-containing fragment. The PCR fragments were assembled using NEBuilder® HiFi DNA Assembly Master Mix (Cat. No. E2621, NEB, Ipswich, MA, USA). DNA sequences in all these plasmids were authenticated by automatic sequencing. […] After 24 h, 2 × 10^4 transfected cells were seeded into white 96-well tissue culture plates in Gibco™ Opti-MEM™ I Reduced Serum Medium, No Phenol Red (Cat. No. 11-058-021, Fisher) containing 4% FBS with or without HaloTag NanoBRET 618 Ligand (Cat. No. PRN1662, Promega) and incubated overnight at 37 °C, 5% CO2. The following day, serial diluted compounds were added into the medium and plates were incubated at 37 °C, 5% CO2, for 6 h. After treatment, NanoBRET Nano-Glo Substrate (cat. no. N1662, Promega) was added into the medium, and the contents were mixed by shaking the plate for 30 s before measuring donor and acceptor signals on Biotek plate reader. Dual-filtered luminescence was collected with a 450/50 nm bandpass filter (donor, NanoBiT-BCL-XL protein or NanoBiT-BCL-2 protein) and a 610-nm longpass filter (acceptor, HaloTag NanoBRET ligand) using an integration time of 0.5 s. mBRET ratios were calculated following the NanoBRET™ Nano-Glo® Detection System (Cat. No. N1662, Promega).

[2] = test system: BCL-2/PROTAC/VCB ternary complex (HiBit-BCL-2, HaloTag-VHL); experiment: NanoBRET intracellular ternary complex formation in 293T cells, BCL-2; type: cell-based, human; settings: for NanoBRET ratio (610/450 x1000, background-subtracted), Bcl-2, Ave / NanoBRET signal (610/450 ratio, background-subtracted), Ave, Bcl-2: Ave of Read1 and Read2; for NanoBRET ratio (610/450 x1000, background-subtracted), Bcl-2, Ave / NanoBRET ratio (610/450 x1000, background-subtracted), Bcl-2, Read1 / NanoBRET ratio (610/450 x1000, background-subtracted), Bcl-2, Read2: 293T cells, triplicate wells; for NanoBRET signal (610/450 ratio, background-subtracted), Ave, Bcl-2: per replicate well; for NanoBRET signal (610/450 ratio, background-subtracted), Read1, Bcl-2 / NanoBRET signal (610/450 ratio, background-subtracted), Read2, Bcl-2: individual replicate wells
Excerpt: as §1

Structure (SMILES)	NanoBRET ratio (610/450 x1000, background-subtracted), Bcl-xl, Ave ([1]; 0.333 uM)	NanoBRET ratio (610/450 x1000, background-subtracted), Bcl-xl, Read1 ([1]; 0.333 uM)	NanoBRET ratio (610/450 x1000, background-subtracted), Bcl-xl, Read2 ([1]; 0.333 uM)	NanoBRET ratio (610/450 x1000, background-subtracted), Bcl-xl, Ave ([1]; 1 uM)	NanoBRET ratio (610/450 x1000, background-subtracted), Bcl-xl, Read1 ([1]; 1 uM)	NanoBRET ratio (610/450 x1000, background-subtracted), Bcl-xl, Read2 ([1]; 1 uM)	NanoBRET ratio (610/450 x1000, background-subtracted), Bcl-xl, Ave ([1]; 3 uM)	NanoBRET ratio (610/450 x1000, background-subtracted), Bcl-xl, Read1 ([1]; 3 uM)	NanoBRET ratio (610/450 x1000, background-subtracted), Bcl-xl, Read2 ([1]; 3 uM)	NanoBRET ratio (610/450 x1000, background-subtracted), Bcl-2, Ave ([2]; 0.333 uM)	NanoBRET ratio (610/450 x1000, background-subtracted), Bcl-2, Read1 ([2]; 0.333 uM)	NanoBRET ratio (610/450 x1000, background-subtracted), Bcl-2, Read2 ([2]; 0.333 uM)	NanoBRET ratio (610/450 x1000, background-subtracted), Bcl-2, Ave ([2]; 1 uM)	NanoBRET ratio (610/450 x1000, background-subtracted), Bcl-2, Read1 ([2]; 1 uM)	NanoBRET ratio (610/450 x1000, background-subtracted), Bcl-2, Read2 ([2]; 1 uM)	NanoBRET ratio (610/450 x1000, background-subtracted), Bcl-2, Ave ([2]; 3 uM)	NanoBRET ratio (610/450 x1000, background-subtracted), Bcl-2, Read1 ([2]; 3 uM)	NanoBRET ratio (610/450 x1000, background-subtracted), Bcl-2, Read2 ([2]; 3 uM)	NanoBRET signal (610/450 ratio, background-subtracted), Ave, Bcl-xl ([1]; 0.333 uM)	NanoBRET signal (610/450 ratio, background-subtracted), Read1, Bcl-xl ([1]; 0.333 uM)	other results
Cc1ncsc1-c1ccc(C(C)NC(=O)C2CC(O)CN2C(=O)C(NC(=O)CCCCC(=O)N2CCN(CC3(C)CCC(c4ccc(Cl)cc4)=C(CN4CCN(c5ccc(C(=O)NS(=O)(=O)c6ccc(NC(CCN7CCOCC7)CSc7ccccc7)c(S(=O)(=O)C(F)(F)F)c6)cc5)CC4)C3)CC2)C(C)(C)C)cc1 (mixture of isomers) [319-C6]	6.174 and 6.1699 and 6.65	6.062 and 6.008 and 6.406	6.287 and 6.332 and 6.893	8.477 and 7.0143 and 7.515	8.852 and 7.285 and 8.097	8.103 and 6.744 and 6.934	8.009 and 9.063 and 8.852	8.381 and 8.755 and 9.483	7.637 and 9.371 and 8.221	6.191 and 6.524 and 6.882	6.596 and 6.719 and 7.227	5.786 and 6.329 and 6.537	6.728 and 7.064 and 7.162	6.811 and 7.607 and 7.576	6.646 and 6.52 and 6.748	8.027 and 7.6 and 7.992	8.178 and 7.5868 and 7.751	7.877 and 7.613 and 8.232			
Cc1ncsc1-c1ccc(C(C)NC(=O)C2CC(O)CN2C(=O)C(NC(=O)CCCCCCCC(=O)N2CCN(CC3(C)CCC(c4ccc(Cl)cc4)=C(CN4CCN(c5ccc(C(=O)NS(=O)(=O)c6ccc(NC(CCN7CCOCC7)CSc7ccccc7)c(S(=O)(=O)C(F)(F)F)c6)cc5)CC4)C3)CC2)C(C)(C)C)cc1 (mixture of isomers) [319-C9]																			7.303 and 5.548 and 6.719	7.675 and 6.0029 and 7.554	NanoBRET signal (610/450 ratio, background-subtracted), Read2, Bcl-xl ([1]; 0.333 uM): 6.932 and 5.093 and 5.885; NanoBRET signal (610/450 ratio, background-subtracted), Ave, Bcl-xl ([1]; 1 uM): 6.725 and 7.112; NanoBRET signal (610/450 ratio, background-subtracted), Read1, Bcl-xl ([1]; 1 uM): 7.559 and 11.4906 and 7.902; NanoBRET signal (610/450 ratio, background-subtracted), Read2, Bcl-xl ([1]; 1 uM): 5.8908 and 9.929 and 6.321; NanoBRET signal (610/450 ratio, background-subtracted), Ave, Bcl-xl ([1]; 3 uM): 8.449 and 8.436 and 7.804; NanoBRET signal (610/450 ratio, background-subtracted), Read1, Bcl-xl ([1]; 3 uM): 8.506 and 8.886 and 8.744; NanoBRET signal (610/450 ratio, background-subtracted), Read2, Bcl-xl ([1]; 3 uM): 8.392 and 7.986 and 6.863; NanoBRET signal (610/450 ratio, background-subtracted), Ave, Bcl-2 ([2]; 0.333 uM): 5.707 and 5.966 and 5.739; NanoBRET signal (610/450 ratio, background-subtracted), Read1, Bcl-2 ([2]; 0.333 uM): 6.091 and 5.602 and 5.911; NanoBRET signal (610/450 ratio, background-subtracted), Read2, Bcl-2 ([2]; 0.333 uM): 5.322 and 6.329 and 5.568; NanoBRET signal (610/450 ratio, background-subtracted), Ave, Bcl-2 ([2]; 1 uM): 8.164 and 7.003 and 7.361; NanoBRET signal (610/450 ratio, background-subtracted), Read1, Bcl-2 ([2]; 1 uM): 7.94 and 7.065 and 7.5271; NanoBRET signal (610/450 ratio, background-subtracted), Read2, Bcl-2 ([2]; 1 uM): 8.387 and 6.941 and 7.196; NanoBRET signal (610/450 ratio, background-subtracted), Ave, Bcl-2 ([2]; 3 uM): 7.788 and 8.559 and 8.325; NanoBRET signal (610/450 ratio, background-subtracted), Read1, Bcl-2 ([2]; 3 uM): 7.715 and 8.321 and 8.876; NanoBRET signal (610/450 ratio, background-subtracted), Read2, Bcl-2 ([2]; 3 uM): 7.862 and 8.797 and 7.774
Cc1ncsc1-c1ccc(C(C)NC(=O)C2CC(O)CN2C(=O)C(NC(=O)CCCC(=O)N2CCN(CC3(C)CCC(c4ccc(Cl)cc4)=C(CN4CCN(c5ccc(C(=O)NS(=O)(=O)c6ccc(NC(CCN7CCOCC7)CSc7ccccc7)c(S(=O)(=O)C(F)(F)F)c6)cc5)CC4)C3)CC2)C(C)(C)C)cc1 (mixture of isomers) [319-C5]	6.339 and 5.781 and 6.072	6.257 and 5.719 and 6.3849	6.422 and 5.844 and 5.759	5.241 and 6.025 and 7.398	5.522 and 5.988 and 7.452	4.96 and 6.062 and 7.344	5.367 and 5.631 and 6.141	5.5804 and 5.686 and 6.375	5.154 and 5.575 and 5.907	5.628 and 6.032 and 6.002	5.8735 and 6.598 and 5.9581	5.383 and 5.466 and 6.046	7.014 and 6.158 and 6.868	6.748 and 6.437 and 7.054	7.2789 and 5.879 and 6.683	6.77 and 7.133 and 6.868	6.63 and 7.268 and 6.8218	6.909 and 6.997 and 6.914			
Cc1ncsc1-c1ccc(C(C)NC(=O)C2CC(O)CN2C(=O)C(NC(=O)CCCCCCCCCC(=O)N2CCN(CC3(C)CCC(c4ccc(Cl)cc4)=C(CN4CCN(c5ccc(C(=O)NS(=O)(=O)c6ccc(NC(CCN7CCOCC7)CSc7ccccc7)c(S(=O)(=O)C(F)(F)F)c6)cc5)CC4)C3)CC2)C(C)(C)C)cc1 (mixture of isomers) [319-C11]																			5.756 and 6.621 and 6.037	6.07 and 6.538 and 6.1116	NanoBRET signal (610/450 ratio, background-subtracted), Read2, Bcl-xl ([1]; 0.333 uM): 5.442 and 6.704 and 5.963; NanoBRET signal (610/450 ratio, background-subtracted), Ave, Bcl-xl ([1]; 1 uM): 5.696 and 5.538 and 6.106; NanoBRET signal (610/450 ratio, background-subtracted), Read1, Bcl-xl ([1]; 1 uM): 5.861 and 5.46 and 6.469; NanoBRET signal (610/450 ratio, background-subtracted), Read2, Bcl-xl ([1]; 1 uM): 5.532 and 5.616 and 5.743; NanoBRET signal (610/450 ratio, background-subtracted), Ave, Bcl-xl ([1]; 3 uM): 5.386 and 5.324 and 6.583; NanoBRET signal (610/450 ratio, background-subtracted), Read1, Bcl-xl ([1]; 3 uM): 5.512 and 5.444 and 6.844; NanoBRET signal (610/450 ratio, background-subtracted), Read2, Bcl-xl ([1]; 3 uM): 5.259 and 5.204 and 6.3216; NanoBRET signal (610/450 ratio, background-subtracted), Ave, Bcl-2 ([2]; 0.333 uM): 4.383 and 4.153 and 4.737; NanoBRET signal (610/450 ratio, background-subtracted), Read1, Bcl-2 ([2]; 0.333 uM): 4.892 and 4.708 and 4.979; NanoBRET signal (610/450 ratio, background-subtracted), Read2, Bcl-2 ([2]; 0.333 uM): 3.874 and 3.599 and 4.495; NanoBRET signal (610/450 ratio, background-subtracted), Ave, Bcl-2 ([2]; 1 uM): 4.831 and 5.865 and 5.494; NanoBRET signal (610/450 ratio, background-subtracted), Read1, Bcl-2 ([2]; 1 uM): 4.901 and 5.9757 and 5.389; NanoBRET signal (610/450 ratio, background-subtracted), Read2, Bcl-2 ([2]; 1 uM): 4.762 and 5.754 and 5.599; NanoBRET signal (610/450 ratio, background-subtracted), Ave, Bcl-2 ([2]; 3 uM): 4.755 and 5.241 and 5.369; NanoBRET signal (610/450 ratio, background-subtracted), Read1, Bcl-2 ([2]; 3 uM): 5 and 5.455 and 5.5909; NanoBRET signal (610/450 ratio, background-subtracted), Read2, Bcl-2 ([2]; 3 uM): 4.5106 and 5.027 and 5.1462
